Source: US20170273922A1, “UREA AND BIS-UREA BASED COMPOUNDS AND ANALOGUES THEREOF USEFUL IN THE TREATMENT OF ANDROGEN RECEPTOR MEDIATED DISEASES OR DISORDERS” (THE ROYAL INSTITUTION FOR THE ADVACEMENT OF LEARNING/MCGILL …, priority 2014, published 2017)
Entries after “also recorded” stand apart in the source; their conditions may differ.

Key:
[1] = target: T1, IRF3DBD-AR(1-547) (Homo sapiens, UniProt P10275); assay: IRF3DBD-AR(1-547) ISRE-luc reporter assay; type: cell-based; details: 24 h; for inhibition of IRF3DBD-AR(1-547)-mediated ISRE-luc activation: HEK293 cells; for inhibition of IRF3-AR(1-547)-dependent ISRE-luc reporter activity: PC3 cells
T1 construct: IRF3-AR(1-547) is the fusion of IRF3 DBD with the AR NTD (1-547); expressed in transfected cells
T1 sequence (P10275 1-547): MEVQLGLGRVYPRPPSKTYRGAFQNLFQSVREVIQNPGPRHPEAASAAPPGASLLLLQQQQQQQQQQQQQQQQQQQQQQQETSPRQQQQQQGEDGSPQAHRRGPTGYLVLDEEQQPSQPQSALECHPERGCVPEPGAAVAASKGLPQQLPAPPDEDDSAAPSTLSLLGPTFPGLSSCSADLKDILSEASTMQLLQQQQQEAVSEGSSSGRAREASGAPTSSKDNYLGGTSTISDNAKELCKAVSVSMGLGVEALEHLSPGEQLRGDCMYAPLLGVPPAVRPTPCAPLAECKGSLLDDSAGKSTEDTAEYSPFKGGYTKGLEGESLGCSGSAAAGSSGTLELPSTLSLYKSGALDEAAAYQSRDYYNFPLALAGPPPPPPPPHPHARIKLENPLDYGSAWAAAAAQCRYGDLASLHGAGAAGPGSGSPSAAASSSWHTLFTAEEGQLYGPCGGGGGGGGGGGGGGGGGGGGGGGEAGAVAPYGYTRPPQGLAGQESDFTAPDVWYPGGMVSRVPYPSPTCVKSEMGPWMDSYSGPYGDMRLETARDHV

[2] = tested on: 22Rv1 cells; assay: MTT assay (cytotoxicity), 22Rv1 cells; type: cell-based; details: 22Rv1 cells, 72 h, Table 4.2
In short: (§1)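 Cells grown in RPMI 1640 with 10% FBS were seeded at 6-7×10^3 per well, left overnight, then exposed to test compounds at designated concentrations or DMSO vehicle for 72 h in fresh medium. Viability was read by MTT; triplicates, repeated at least twice.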

[3] = tested on: DU145 cells; assay: MTT assay (cytotoxicity), DU145 cells; type: cell-based; details: DU145 cells, 72 h, Table 4.2
In short: as §1

[4] = target: T2, AR-v7 (Homo sapiens, UniProt P10275); assay: AR-v7-dependent PSA-luc reporter assay in HEK293 cells; details: for potency relative to EPI-001 at 25 μM in suppressing constitutive activation of wild-type AR-v7: compounds at 2.5 μM
T2 sequence (P10275 1-644 isoform P10275-3): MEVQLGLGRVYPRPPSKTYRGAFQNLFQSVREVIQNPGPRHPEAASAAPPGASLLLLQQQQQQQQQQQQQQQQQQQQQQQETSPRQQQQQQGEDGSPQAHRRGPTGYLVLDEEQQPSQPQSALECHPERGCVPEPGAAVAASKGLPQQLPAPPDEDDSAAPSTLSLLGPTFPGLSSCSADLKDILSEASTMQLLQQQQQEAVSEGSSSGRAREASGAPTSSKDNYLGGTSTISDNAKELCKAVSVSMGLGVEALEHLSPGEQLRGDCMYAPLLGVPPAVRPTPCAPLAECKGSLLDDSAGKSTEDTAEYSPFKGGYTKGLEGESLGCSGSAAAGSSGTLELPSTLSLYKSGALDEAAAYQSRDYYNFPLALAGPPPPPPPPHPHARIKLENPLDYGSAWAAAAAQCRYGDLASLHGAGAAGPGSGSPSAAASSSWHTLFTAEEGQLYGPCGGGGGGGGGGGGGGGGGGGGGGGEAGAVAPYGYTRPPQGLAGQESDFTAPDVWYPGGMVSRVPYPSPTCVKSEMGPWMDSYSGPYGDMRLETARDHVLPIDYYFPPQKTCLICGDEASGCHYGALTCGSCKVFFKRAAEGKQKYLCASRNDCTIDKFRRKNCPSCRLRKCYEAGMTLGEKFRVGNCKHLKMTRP
Method: Cells were exposed to vehicle control or compounds at designated concentrations (μM) for 48 h.

[5] = tested on: PSA expression in LNCaP cells; assay: Western blot of PSA expression in LNCaP cells; type: cell-based; details: 24 h; for suppression of PSA expression in LNCaP cells (FIG. 19C): whole medium
Method: FIG. 11: A) Compounds 562 and 746 suppressed DHT-induced AR activation in LNCaP cells which endogenously express the T877A mutant; B) Western blot analysis indicated compound 746 at 2.5 μM suppressed DHT-induced expression of the PSA in LNCaP cells. […] ENZ, enzalutamide; BIC, bicalutamide; EPI, EPI-001.
Experiments were in duplicate and repeated three times. […] LNCaP cells in whole medium were exposed to DMSO vehicle control or compounds for 24 h.

[6] = target: T3, glucocorticoid receptor (GR) (Homo sapiens, UniProt P04150); assay: GR MMTV-luc reporter assay in PC3 cells; type: cell-based; parameters: interference with transcriptional activity of GR: dose or concentration left out as unconfirmed; details: for effect on GR transcriptional activation induced by DEX (MMTV-luc): 10 nM DEX, 24 h; for agonism of GR (MMTV-luc): absence of DEX
T3 construct: PC3 cells express endogenous GR; endogenous in cells; host or cells: PC3
T3 sequence (P04150 1-777): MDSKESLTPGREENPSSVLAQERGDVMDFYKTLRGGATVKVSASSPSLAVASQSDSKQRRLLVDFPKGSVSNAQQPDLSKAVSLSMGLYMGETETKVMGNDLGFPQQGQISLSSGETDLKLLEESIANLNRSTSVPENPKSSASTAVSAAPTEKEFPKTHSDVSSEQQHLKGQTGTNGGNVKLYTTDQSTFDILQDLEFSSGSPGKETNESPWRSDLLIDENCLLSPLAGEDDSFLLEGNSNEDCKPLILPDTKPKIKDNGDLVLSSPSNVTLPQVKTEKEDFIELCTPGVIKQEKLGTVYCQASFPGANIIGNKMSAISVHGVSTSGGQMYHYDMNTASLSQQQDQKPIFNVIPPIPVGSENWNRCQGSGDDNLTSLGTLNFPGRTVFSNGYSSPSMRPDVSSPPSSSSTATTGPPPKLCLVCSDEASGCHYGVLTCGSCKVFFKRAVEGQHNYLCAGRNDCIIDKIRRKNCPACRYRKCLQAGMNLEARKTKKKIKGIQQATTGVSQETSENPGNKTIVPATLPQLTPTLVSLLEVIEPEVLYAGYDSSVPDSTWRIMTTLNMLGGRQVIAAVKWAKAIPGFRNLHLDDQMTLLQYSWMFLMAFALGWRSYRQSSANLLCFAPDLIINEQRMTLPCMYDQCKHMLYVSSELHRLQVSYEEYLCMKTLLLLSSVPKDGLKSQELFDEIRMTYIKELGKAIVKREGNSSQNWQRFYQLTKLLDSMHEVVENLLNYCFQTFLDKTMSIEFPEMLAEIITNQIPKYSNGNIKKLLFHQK
From the text: A) PC3 cells express endogenous GR. MMTV-Luc and pRL-TK were transiently co-transfected into PC3 cells.
AR and GR are close homology proteins and both of them belong to steroid receptor family. […] MMTV-luc reporter and pRL-TK plasmids were transiently co-transfected into PC3 cells, which endogenously express GR. […] DEX is an agonist of the GR.

SMILES	inhibition of IRF3-AR(1-547)-dependent ISRE-luc reporter activity [1]	inhibition of constitutive activation of AR-v7 (PSA-luc) ([4]; 2.5 μM)	potency relative to EPI-001 at 25 μM in suppressing constitutive activation of wild-type AR-v7 [4]	interference with transcriptional activity of GR [6]	inhibition of IRF3DBD-AR(1-547)-mediated ISRE-luc activation [1]	IC50 [2]	IC50 [3]	inhibition of constitutive activation of AR-v7 (PSA-luc) ([4]; 24 h)	suppression of PSA expression in LNCaP cells (FIG. 19C) [5]	effect on GR transcriptional activation induced by DEX (MMTV-luc) ([6]; PC3 cells)	suppression of GR transactivation induced by 10 nM DEX ([6]; 5 μM, PC3 cells)	agonism of GR (MMTV-luc) ([6]; 5 μM)	agonism of GR (MMTV-luc) ([6]; PC3 cells)	suppression of PSA expression in LNCaP cells (FIG. 11B) ([5]; 10 nM DHT)	suppression of DHT-induced expression of the PSA in LNCaP cells ([5]; 2.5 μM, 10 nM DHT)
O=C(Nc1cccc(C(F)(F)F)c1)Nc1ccc([N+](=O)[O-])c(C(F)(F)F)c1 [Compound 442]					suppressed	1.5 µM	1.5 µM	inhibited	dose-dependently suppressed	inactive	inactive	non-agonist	non-agonist		
N#Cc1ccc(NC(=O)Nc2cccc(C(F)(F)F)c2)cc1C(F)(F)F [Compound 467]					suppressed	1.7 µM	1.6 µM	inhibited	dose-dependently suppressed	inactive	inactive	non-agonist	non-agonist		
N#Cc1ccc(NC(=O)Nc2cccc(C(F)(F)F)c2)cc1Cl [Compound 492]						1.9 µM	5.1 µM	inhibited		inactive	inactive	non-agonist			

Second part, led by results:

inhibition of IRF3-AR(1-547)-dependent ISRE-luc reporter activity [1]	inhibition of constitutive activation of AR-v7 (PSA-luc) ([4]; 2.5 μM)	potency relative to EPI-001 at 25 μM in suppressing constitutive activation of wild-type AR-v7 [4]	interference with transcriptional activity of GR [6]	SMILES	inhibition of IRF3DBD-AR(1-547)-mediated ISRE-luc activation [1]	IC50 [2]	IC50 [3]	inhibition of constitutive activation of AR-v7 (PSA-luc) ([4]; 24 h)	suppression of PSA expression in LNCaP cells (FIG. 19C) [5]	effect on GR transcriptional activation induced by DEX (MMTV-luc) ([6]; PC3 cells)	suppression of GR transactivation induced by 10 nM DEX ([6]; 5 μM, PC3 cells)	agonism of GR (MMTV-luc) ([6]; 5 μM)	agonism of GR (MMTV-luc) ([6]; PC3 cells)	suppression of PSA expression in LNCaP cells (FIG. 11B) ([5]; 10 nM DHT)	suppression of DHT-induced expression of the PSA in LNCaP cells ([5]; 2.5 μM, 10 nM DHT)
potently inhibit	inhibit	more potent than EPI-001 at 25 μM	do not interfere	O=C(N/C=C/c1cccc(C(F)(F)F)c1)Nc1ccncn1 [Compound 562]	targeting the AR-NTD; also recorded: target the AR-NTD			dose-dependently inhibit		do not interfere; also recorded: selective towards the AR				suppressed	
	inhibit	more potent than EPI-001 at 25 μM	do not interfere	O=C(Nc1ccc(Br)nc1)Nc1cc(C(F)(F)F)cc(C(F)(F)F)c1 [Compound 566]	targeting the AR-NTD; also recorded: target the AR-NTD					do not interfere					
potently inhibit	inhibit		do not interfere	O=C(Nc1cccc(C(F)(F)F)c1)Nc1ccc(NC(=O)c2ccccc2F)c(C(F)(F)F)c1 [Compound 746]	targeting the AR-NTD; also recorded: target the AR-NTD			dose-dependently inhibit		do not interfere; also recorded: selective towards the AR				suppressed	suppressed
